Measurements from ChEMBL document CHEMBL3045111, “Synthesis and herbicidal activities of novel 3-(substituted benzyloxy or phenoxy)-6-methyl-4-(3-trifluoromethylphenyl)pyridazine derivatives” (2012).
Calls of active or inactive are those of the source. No cut-off for these calls is given here.

What was measured:
[1] = test system: Brassica rapa subsp. oleifera; assay: Post-emergence herbicidal activity against one-leaf stage Brassica rapa subsp. oleifera under greenhouse condition at 600 g /ha measured after 24 days by spray method; assay type: functional; settings: 576 h, read-out: GI
Amaranthus retroflexus [2] = assay: Post-emergence herbicidal activity against one-leaf stage Amaranthus retroflexus under greenhouse condition at 150 g /ha measured after 24 days by spray method; assay type: functional; settings: 576 h, read-out: GI
Amaranthus retroflexus [3] = assay: Pre-emergence herbicidal activity against Amaranthus retroflexus under greenhouse condition at 750 g /ha measured after 24 days by spray method; assay type: functional; settings: 576 h, read-out: GI
Amaranthus retroflexus [4] = assay: Post-emergence herbicidal activity against one-leaf stage of Amaranthus retroflexus under greenhouse condition at 750 g /ha measured after 24 days by spray method; assay type: functional; settings: 576 h, read-out: GI
[5] = test system: Brassica rapa subsp. oleifera; assay: Post-emergence herbicidal activity against one-leaf stage Brassica rapa subsp. oleifera under greenhouse condition assessed as complete bleaching of leaves at 75 g /ha measured after 24 days by spray method; assay type: functional, organism-based
[6] = test system: Brassica rapa subsp. oleifera; assay: Post-emergence herbicidal activity against one-leaf stage Brassica rapa subsp. oleifera under greenhouse condition assessed as complete bleaching of leaves at 300 g /ha measured after 24 days by spray method; assay type: functional, organism-based
[7] = test system: Brassica rapa subsp. oleifera; assay: Post-emergence herbicidal activity against one-leaf stage Brassica rapa subsp. oleifera under greenhouse condition at 750 g /ha measured after 24 days by spray method; assay type: functional; settings: 576 h, read-out: GI
[8] = test system: Brassica rapa subsp. oleifera; assay: Post-emergence herbicidal activity against one-leaf stage Brassica rapa subsp. oleifera under greenhouse condition assessed as complete bleaching of leaves at 150 g /ha measured after 24 days by spray method; assay type: functional, organism-based
[9] = test system: Brassica rapa subsp. oleifera; assay: Post-emergence herbicidal activity against one-leaf stage Brassica rapa subsp. oleifera under greenhouse condition at 75 g /ha measured after 24 days by spray method; assay type: functional; settings: 576 h, read-out: GI
Digitaria [10] = assay: Pre-emergence herbicidal activity against Digitaria adscendens under greenhouse condition at 750 g /ha measured after 24 days by spray method; assay type: functional; settings: in Digitaria adscendens, 576 h, read-out: GI
Echinochloa crus-galli [11] = assay: Post-emergence herbicidal activity against one-leaf stage of Echinochloa crus-galli (barnyard grass) under greenhouse condition at 750 g /ha measured after 24 days by spray method; assay type: functional; settings: 576 h, read-out: GI
Amaranthus retroflexus [12] = assay: Post-emergence herbicidal activity against one-leaf stage Amaranthus retroflexus under greenhouse condition assessed as complete bleaching of leaves at 150 g /ha measured after 24 days by spray method; assay type: functional, organism-based
[13] = test system: Brassica rapa subsp. oleifera; assay: Post-emergence herbicidal activity against one-leaf stage Brassica rapa subsp. oleifera under greenhouse condition assessed as complete bleaching of leaves at 600 g /ha measured after 24 days by spray method; assay type: functional, organism-based
Spirodela polyrhiza [14] = assay: Bleaching herbicidal activity in Spirodela polyrhiza fronds cultured in compound-containing in medium assessed as chlorophyll inhibition at 1 ug/ml after 7 days; assay type: functional; settings: 168 h
Amaranthus retroflexus [15] = assay: Post-emergence herbicidal activity against one-leaf stage Amaranthus retroflexus under greenhouse condition at 600 g /ha measured after 24 days by spray method; assay type: functional; settings: 576 h, read-out: GI
Amaranthus retroflexus [16] = assay: Post-emergence herbicidal activity against one-leaf stage Amaranthus retroflexus under greenhouse condition assessed as complete bleaching of leaves at 300 g /ha measured after 24 days by spray method; assay type: functional, organism-based
Amaranthus retroflexus [17] = assay: Post-emergence herbicidal activity against one-leaf stage Amaranthus retroflexus under greenhouse condition at 75 g /ha measured after 24 days by spray method; assay type: functional; settings: 576 h, read-out: GI
Amaranthus retroflexus [18] = assay: Post-emergence herbicidal activity against one-leaf stage Amaranthus retroflexus under greenhouse condition assessed as complete bleaching of leaves at 600 g /ha measured after 24 days by spray method; assay type: functional, organism-based
Amaranthus retroflexus [19] = assay: Post-emergence herbicidal activity against one-leaf stage Amaranthus retroflexus under greenhouse condition at 300 g /ha measured after 24 days by spray method; assay type: functional; settings: 576 h, read-out: GI
Spirodela polyrhiza [20] = assay: Bleaching herbicidal activity in Spirodela polyrhiza fronds cultured in compound-containing in medium assessed as chlorophyll inhibition at 10 ug/ml after 7 days; assay type: functional; settings: 168 h
[21] = test system: Brassica rapa subsp. oleifera; assay: Post-emergence herbicidal activity against one-leaf stage Brassica rapa subsp. oleifera under greenhouse condition at 150 g /ha measured after 24 days by spray method; assay type: functional; settings: 576 h, read-out: GI
Echinochloa crus-galli [22] = assay: Pre-emergence herbicidal activity against Echinochloa crus-galli (barnyard grass) under greenhouse condition at 750 g /ha measured after 24 days by spray method; assay type: functional; settings: 576 h, read-out: GI
[23] = test system: Brassica rapa subsp. oleifera; assay: Post-emergence herbicidal activity against one-leaf stage Brassica rapa subsp. oleifera under greenhouse condition at 300 g /ha measured after 24 days by spray method; assay type: functional; settings: 576 h, read-out: GI
[24] = test system: Brassica rapa subsp. oleifera; assay: Pre-emergence herbicidal activity against Brassica rapa subsp. oleifera under greenhouse condition at 750 g /ha measured after 24 days by spray method; assay type: functional; settings: 576 h, read-out: GI
Digitaria [25] = assay: Post-emergence herbicidal activity against one-leaf stage of Digitaria adscendens under greenhouse condition at 750 g /ha measured after 24 days by spray method; assay type: functional; settings: in Digitaria adscendens, 576 h, read-out: GI
Amaranthus retroflexus [26] = assay: Post-emergence herbicidal activity against one-leaf stage Amaranthus retroflexus under greenhouse condition assessed as complete bleaching of leaves at 75 g /ha measured after 24 days by spray method; assay type: functional, organism-based

SMILES | inhibition of growth at 600 g/ha [1] | inhibition of growth at 150 g/ha (Amaranthus retroflexus [2]) | inhibition of growth at 750 g/ha (Amaranthus retroflexus [3]) | inhibition of growth at 750 g/ha (Amaranthus retroflexus [4]) | Activity [5] | Activity [6] | inhibition of growth at 750 g/ha [7] | Activity [8] | inhibition of growth at 75 g/ha [9] | inhibition of growth at 750 g/ha (Digitaria [10]) | inhibition of growth at 750 g/ha (Echinochloa crus-galli [11]) | Activity (Amaranthus retroflexus [12]) | Activity [13] | inhibition at 1 µg/mL (Spirodela polyrhiza [14]) | inhibition of growth at 600 g/ha (Amaranthus retroflexus [15]) | Activity (Amaranthus retroflexus [16]) | inhibition of growth at 75 g/ha (Amaranthus retroflexus [17]) | Activity (Amaranthus retroflexus [18]) | inhibition of growth at 300 g/ha (Amaranthus retroflexus [19]) | inhibition at 10 µg/mL (Spirodela polyrhiza [20]) | other results
Cc1ccc(Oc2nnc(C)cc2-c2cccc(C(F)(F)F)c2)cc1 | 97% | 47% | 0% | 84% | Active | Active | 100% | Active | 56% | 44% | 47% | Active | Active | 82% | 76% | Active | 5% | Active | 58% | 94% | inhibition of growth at 150 g/ha [21]: 67%; inhibition of growth at 750 g/ha (Echinochloa crus-galli [22]): 0%; inhibition of growth at 300 g/ha [23]: 89%; inhibition of growth at 750 g/ha [24]: 13%; inhibition of growth at 750 g/ha (Digitaria [25]): 30%
Cc1cc(-c2cccc(C(F)(F)F)c2)c(Oc2ccc(Cl)cc2)nn1 | 80% | 84% | 100% | 94% | Active | Active | 98% | Active | 65% | 97% | 78% | Active | Active | 72% | 90% | Active | 45% | Active | 86% | 99% | inhibition of growth at 150 g/ha [21]: 71%; inhibition of growth at 750 g/ha (Echinochloa crus-galli [22]): 85%; inhibition of growth at 300 g/ha [23]: 76%; Activity (Amaranthus retroflexus [26]): Active; inhibition of growth at 750 g/ha [24]: 97%; inhibition of growth at 750 g/ha (Digitaria [25]): 79%
Cc1cc(-c2cccc(C(F)(F)F)c2)c(Oc2cccc(C(F)(F)F)c2)nn1 | 66% | 49% | 0% | 79% | Active | Active | 99% | Active | 39% | 7% | 38% | Active | Active | 84% | 94% | Active | 19% | Active | 70% | 92% | inhibition of growth at 150 g/ha [21]: 52%; inhibition of growth at 750 g/ha (Echinochloa crus-galli [22]): 0%; inhibition of growth at 300 g/ha [23]: 58%; inhibition of growth at 750 g/ha [24]: 0%; inhibition of growth at 750 g/ha (Digitaria [25]): 62%
Cc1cc(-c2cccc(C(F)(F)F)c2)c(Oc2ccccc2)nn1 | 75% | 36% | 0% | 75% | Active | Active | 99% | Active | 38% | 87% | 26% | Active | Active | 68% | 96% | Active | 22% | Active | 64% | 75% | inhibition of growth at 150 g/ha [21]: 53%; inhibition of growth at 750 g/ha (Echinochloa crus-galli [22]): 0%; inhibition of growth at 300 g/ha [23]: 56%; inhibition of growth at 750 g/ha [24]: 0%; inhibition of growth at 750 g/ha (Digitaria [25]): 88%
Cc1cc(-c2cccc(C(F)(F)F)c2)c(Oc2cccc(Br)c2)nn1 | 91% | 45% | 0% | 94% | Active | Active | 100% | Active | 42% | 33% | 40% | Active | Active | 70% | 73% | Active | 38% | Active | 70% | 79% | inhibition of growth at 150 g/ha [21]: 67%; inhibition of growth at 750 g/ha (Echinochloa crus-galli [22]): 14%; inhibition of growth at 300 g/ha [23]: 76%; Activity (Amaranthus retroflexus [26]): Active; inhibition of growth at 750 g/ha [24]: 0%; inhibition of growth at 750 g/ha (Digitaria [25]): 40%
O=C(Nc1ccc(F)cc1F)c1cccnc1Oc1cccc(C(F)(F)F)c1 [DIFLUFENICAN] | 98% | 70% | 90% | 100% | Active | Active | 98% | Active | 44% | 100% | 67% | Active | Active | 90% | 100% | Active | 41% | Active | 74% | 94% | inhibition of growth at 150 g/ha [21]: 88%; inhibition of growth at 750 g/ha (Echinochloa crus-galli [22]): 94%; inhibition of growth at 300 g/ha [23]: 94%; Activity (Amaranthus retroflexus [26]): Active; inhibition of growth at 750 g/ha [24]: 71%; inhibition of growth at 750 g/ha (Digitaria [25]): 83%
Cc1cc(-c2cccc(C(F)(F)F)c2)c(Oc2cc(F)cc(F)c2)nn1 | 82% | 96% | 96% | 100% | Active | Active | 80% | Active | 55% | 100% | 57% | Active | Active | 80% | 100% | Active | 31% | Active | 98% | 84% | inhibition of growth at 150 g/ha [21]: 65%; inhibition of growth at 750 g/ha (Echinochloa crus-galli [22]): 51%; inhibition of growth at 300 g/ha [23]: 78%; inhibition of growth at 750 g/ha [24]: 65%; inhibition of growth at 750 g/ha (Digitaria [25]): 48%
Cc1cc(-c2cccc(C(F)(F)F)c2)c(Oc2ccc(F)cc2)nn1 | 83% | 79% | 100% | 96% | Active | Active | 95% | Active | 53% | 96% | 35% | Active | Active | 75% | 100% | Active | 64% | Active | 90% | 91% | inhibition of growth at 150 g/ha [21]: 61%; inhibition of growth at 750 g/ha (Echinochloa crus-galli [22]): 84%; inhibition of growth at 300 g/ha [23]: 70%; Activity (Amaranthus retroflexus [26]): Active; inhibition of growth at 750 g/ha [24]: 98%; inhibition of growth at 750 g/ha (Digitaria [25]): 68%
